Assay results reported in patent US20230286973A1, “PROTEIN SECRETION INHIBITORS” (KEZAR LIFE SCIENCES, priority 2020, published 2023).

Legend:
[1] = Liver Microsome Stability Assay (monkey); details: monkey liver microsomes, with NADPH, 1.0 uM compound
Experimental: (§1) Stability of a compound was assessed in the presence of liver microsomes from various sources—mouse, rat, monkey and human liver microsomes. 1.0 uM compound, 0.4% DMSO in 0.1 M Potassium Phosphate with 1.0 mg/mL liver microsomes, were incubated at 37° C. with or without 1 mM NADPH. The samples were quenched at 0, and 30 minutes.

[2] = system: HER3-ss+4aa/Gaussia Luciferase; assay: Dox-Induced Her3-ss-Gluc Assay; assay type: cell-based; details: 24 hr Dox induction; 293FRT/TO cells; mean; read-out: 24 hr Dox Inducible Her3(ss + 4)Gluc 293FRT/TO: Mean IC50
Outline: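 Doxycycline-inducible HER3 signal sequence+4aa/Gaussia luciferase construct, stably integrated in Flp-In 293 T-REx cells; compound dilutions applied with doxycycline at 37° C., 5% CO2.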

[3] = Liver Microsome Stability Assay (rat); details: rat liver microsomes, with NADPH, 1.0 uM compound
Experimental: as §1

[4] = system: multiple myeloma cell line U266B1; assay: U266 Cell Viability Assay; assay type: cell-based, human; details: Homo sapiens, U-266, 48 h, U266B1 cells, Celltiter-Glo
Outline: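 After growth in serum-supplemented RPMI 1640, cells received serially diluted compound in DMSO/media and were kept 48 hours before a CellTiter-Glo luminescence readout.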

[5] = system: multiple myeloma cell line NCI-H929; assay: H929 Cell Viability Assay; assay type: cell-based, human; details: Homo sapiens, NCI-H929, 48 h, NCI-H929 cells, Celltiter-Glo
Outline: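 A 48-hour compound treatment of cells in 10% FBS RPMI medium was followed by luciferase-based viability quantification.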

[6] = Liver Microsome Stability Assay (human); details: human liver microsomes, with NADPH, 1.0 uM compound
Experimental: as §1

[7] = Liver Microsome Stability Assay (mouse); details: mouse liver microsomes, with NADPH, 1.0 uM compound
Experimental: as §1

[8] = system: TNFα-FL/Gaussia Luciferase; assay: Dox Induced TNFα-FL-Gluc Assay; assay type: cell-based; details: for IC50: 24 hr Dox induction, 293FRT/TO cells, mean, read-out: 24 hr Dox Inducible TNFaFLGluc 293FRT/TO: Mean IC50; for 24 hr Dox Inducible TNFaFLGluc 293FRT/TO: TNF/PD1: ratio of TNFaFLGluc IC50 to PD1ssGluc IC50, '<=>' given where both are I.A.
Outline: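 Hygromycin/blasticidin-selected Flp-In 293 T-REx cells, TNFα-FL/Gaussia luciferase fusion under T-REx control; overnight plating, then compound in DMSO/media with doxycycline at 37 °C, 5% CO2; stereo-undefined structures tested as mixtures.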

[9] = system: PD1-ss+10aa/Gaussia Luciferase; assay: Dox-Induced PD1-ss-Gluc Assay; assay type: cell-based; details: 24 hr Dox induction; 293FRT/TO cells; mean; read-out: 24 hr Dox Inducible PD1ssGluc 293FRT/TO: Mean IC50
Outline: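 Flp-In 293 T-REx cells stably carrying a doxycycline-inducible Gaussia luciferase fused to the PD1 signal sequence plus 10 aa were plated the day before. Compound dilutions in DMSO/media containing doxycycline were then added and incubated at 37 °C, 5% CO2. Data for undefined stereochemistry refer to stereoisomer mixtures.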

[10] = system: IL-2-FL/Gaussia Luciferase; assay: Dox Induced IL2-FL-Gluc Assay; assay type: cell-based; details: for IC50: 24 hr Dox induction, 293FRT/TO cells, mean, read-out: 24 hr Dox Inducible IL2FLGluc 293FRT/TO: Mean IC50; for 24 hr Dox Inducible IL2FLGluc 293FRT/TO: IL2/PD1: ratio of IL2FLGluc IC50 to PD1ssGluc IC50, '<=>' given where both are I.A.
Outline: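 A hygromycin- and blasticidin-resistant 293 T-REx clone carrying inducible IL-2–Gaussia luciferase (full-length IL-2, residues 1-153) serves as the cell system. After overnight plating, the cells get test compounds together with doxycycline in DMSO/media and are incubated at 37° C, 5% CO2.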

SMILES	Liver Microsome Stability (Multiple Species): Monkey - % Remaining after 30 min w/NADPH [1] [%]	IC50 [2] [nM]	Liver Microsome Stability (Multiple Species): Rat - % Remaining after 30 min w/NADPH [3] [%]	EC50 [4] [nM]	EC50 [5] [nM]	Liver Microsome Stability (Multiple Species): Human - % Remaining after 30 min w/NADPH [6] [%]	Liver Microsome Stability (Multiple Species): Mouse - % Remaining after 30 min w/NADPH [7] [%]	IC50 [8] [nM]	IC50 [9] [nM]	IC50 [10] [nM]	24 hr Dox Inducible TNFaFLGluc 293FRT/TO: TNF/PD1 [8]	24 hr Dox Inducible IL2FLGluc 293FRT/TO: IL2/PD1 [10]
C[C@H](CC#N)Cn1cccc1C(=O)Nc1nc([C@H]2CCCN2c2ccccc2)cs1 [Compound C88, 1-((R)-3-cyano-2-methylpropyl)-N-(4-((R)-1-phenylpyrrolidin-2-yl)thiazol-2-yl)-1H-pyrrole-2-carboxamide]	1.91	942	5.31	> 25000	21800	15.7	14.8	5930	581	1900	10.2	3.3
CC(C#N)CCn1cccc1C(=O)Nc1nc([C@H]2CCCN2c2ccccc2)cs1 (stereo partly drawn) [Compound C89, 1-(3-cyanobutyl)-N-(4-((R)-1-phenylpyrrolidin-2-yl)thiazol-2-yl)-1H-pyrrole-2-carboxamide]	0.31	1790	5.16	> 25000	> 25000	24	16.5	14500	1180	2860	12.3	2.4
CC(CCC#N)n1cccc1C(=O)Nc1nc([C@H]2CCCN2c2ccccc2)cs1 (stereo partly drawn) [Compound C90, 1-(4-cyanobutan-2-yl)-N-(4-((R)-1-phenylpyrrolidin-2-yl)thiazol-2-yl)-1H-pyrrole-2-carboxamide]	1.77	2390	7.22	> 25000	> 25000	1.77	1.54	16100	1650	4010	9.76	2.4
O=C(Nc1nc([C@H]2CCCN2c2ccc(C(F)(F)F)cc2)cs1)c1cccn1CC1CCOCC1 [Compound C91, (R)-1-((tetrahydro-2H-pyran-4-yl)methyl)-N-(4-(1-(4-(trifluoromethyl)phenyl)pyrrolidin-2-yl)thiazol-2-yl)-1H-pyrrole-2-carboxamide]	28.2	127	41.8	> 25000	4210	67.8	88.3	1240	93.4	345	13.3	3.7
O=C(Nc1nc([C@H]2CCCN2c2ccccc2)cs1)c1cccn1CCCC1CCOC1 (stereo partly drawn) [Compound C92, N-(4-((R)-1-phenylpyrrolidin-2-yl)thiazol-2-yl)-1-(3-(tetrahydrofuran-3-yl)propyl)-1H-pyrrole-2-carboxamide]	5.09	3010	3.9	> 25000	22000	7.96	15.8	24500	2210	5550	11.1	2.5
N#CCc1ccccc1Cn1cccc1C(=O)Nc1nc([C@H]2CCCN2c2ccccc2)cs1 [Compound C93, (R)-1-(2-(cyanomethyl)benzyl)-N-(4-(1-phenylpyrrolidin-2-yl)thiazol-2-yl)-1H-pyrrole-2-carboxamide]	6.79	1080	1.23	> 25000	> 25000	3.12	16.3	> 25000	4270	1630	>5.86	0.38

Second part, led by results:

Liver Microsome Stability (Multiple Species): Monkey - % Remaining after 30 min w/NADPH [1] [%]	IC50 [2] [nM]	Liver Microsome Stability (Multiple Species): Rat - % Remaining after 30 min w/NADPH [3] [%]	EC50 [4] [nM]	EC50 [5] [nM]	Liver Microsome Stability (Multiple Species): Human - % Remaining after 30 min w/NADPH [6] [%]	Liver Microsome Stability (Multiple Species): Mouse - % Remaining after 30 min w/NADPH [7] [%]	IC50 [8] [nM]	IC50 [9] [nM]	IC50 [10] [nM]	SMILES	24 hr Dox Inducible TNFaFLGluc 293FRT/TO: TNF/PD1 [8]	24 hr Dox Inducible IL2FLGluc 293FRT/TO: IL2/PD1 [10]
10.6	2400	20.7	> 25000	> 25000	63.4	52.1	> 25000	3590	3660	O=C(Nc1nc([C@H]2CCCN2c2ccccc2)cs1)c1cccn1CC1CC(F)(F)C1 [Compound C94, (R)-1-((3,3-difluorocyclobutyl)methyl)-N-(4-(1-phenylpyrrolidin-2-yl)thiazol-2-yl)-1H-pyrrole-2-carboxamide]	>6.97	1
0.11	3.5	1.89	19600	127	0.44	0.28	104	5.05	15.5	CCc1ccc(N2CCC[C@@H]2c2csc(NC(=O)c3cccn3Cc3ccncc3)n2)cn1 [Compound C95, (R)-N-(4-(1-(6-ethylpyridin-3-yl)pyrrolidin-2-yl)thiazol-2-yl)-1-(pyridin-4-ylmethyl)-1H-pyrrole-2-carboxamide]	20.5	3.1
0.13	59.6	0.76	> 25000	2960	0.07	6.58	943	63.7	280	CCc1ccc(N2CCC[C@@H]2c2csc(NC(=O)c3cccn3CC3CCOCC3)n2)cn1 [Compound C96, (R)-N-(4-(1-(6-ethylpyridin-3-yl)pyrrolidin-2-yl)thiazol-2-yl)-1-((tetrahydro-2H-pyran-4-yl)methyl)-1H-pyrrole-2-carboxamide]	14.8	4.4
0.26	2830	4.12	> 25000	21900	26.1	19.1	16800	1720	5380	O=C(Nc1nc([C@H]2CCCN2c2ccccc2)cs1)c1cccn1CCC1COC1 [Compound C99, (R)-1-(2-(oxetan-3-yl)ethyl)-N-(4-(1-phenylpyrrolidin-2-yl)thiazol-2-yl)-1H-pyrrole-2-carboxamide]	9.72	3.1
